This passage reports IC50 and logD results from paper PMC12535076, “Neurotherapeutic effects of Vutiglabridin as a Paraoxonase-2 modulator in preclinical models of Parkinson’s disease” (Molecular Neurodegeneration, 2025).

The target of data set [1] is T1, MAO-B (Homo sapiens, UniProt P27338).
T1 sequence (P27338 1-520): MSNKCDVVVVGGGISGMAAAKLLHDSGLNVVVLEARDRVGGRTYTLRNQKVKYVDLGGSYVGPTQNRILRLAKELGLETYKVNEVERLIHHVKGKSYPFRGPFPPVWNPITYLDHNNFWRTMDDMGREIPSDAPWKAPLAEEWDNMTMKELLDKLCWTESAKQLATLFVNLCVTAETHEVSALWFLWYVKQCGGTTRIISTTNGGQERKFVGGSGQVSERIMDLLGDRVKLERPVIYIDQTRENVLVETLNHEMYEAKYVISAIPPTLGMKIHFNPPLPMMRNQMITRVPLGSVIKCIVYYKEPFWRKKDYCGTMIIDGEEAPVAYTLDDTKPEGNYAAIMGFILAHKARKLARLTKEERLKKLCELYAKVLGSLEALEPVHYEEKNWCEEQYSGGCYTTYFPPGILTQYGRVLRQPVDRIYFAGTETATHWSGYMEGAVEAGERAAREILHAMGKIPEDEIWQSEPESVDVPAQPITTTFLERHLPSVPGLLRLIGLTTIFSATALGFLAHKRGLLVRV
Briefly: ROS Glo based MAO-B enzyme activity assay. To be noted: read-out: IC50, MAO-B assay, ROS-Glo method. It counts as biochemical. As to the method:
An enzyme solution was prepared by diluting 10 µL of a 2.5 mg/mL MAO-A or MAO-B stock in 10 mL of 50 mM sodium phosphate buffer (pH 7.4). A substrate solution was prepared by diluting 200 µL of a 100 mM benzylamine (or tyramine) stock in 10 mL phosphate buffer to achieve a final concentration of 1 mM. For each 96-well plate experiment, 12.5 µL of a 1× H2O2 probe solution was added to 1 mL of the probe dilution buffer from the ROS Glo™ kit. Separately, 40 µL of cysteine and enhancer were diluted into 4 mL of Luciferin solution. In each well, 49 µL of the enzyme solution was dispensed, followed by 1 µL of the test compound, and incubated for 30 min. […] Next, 10 µL of the H2O2 probe solution was added and incubated for 15 min. […] Luminescence was subsequently recorded using a microplate luminescence reader (SpectraMax i3, Molecular Devices).

Data set [2] has as its target T2, MAO-A (Homo sapiens, UniProt P21397).
T2 sequence (P21397 1-527): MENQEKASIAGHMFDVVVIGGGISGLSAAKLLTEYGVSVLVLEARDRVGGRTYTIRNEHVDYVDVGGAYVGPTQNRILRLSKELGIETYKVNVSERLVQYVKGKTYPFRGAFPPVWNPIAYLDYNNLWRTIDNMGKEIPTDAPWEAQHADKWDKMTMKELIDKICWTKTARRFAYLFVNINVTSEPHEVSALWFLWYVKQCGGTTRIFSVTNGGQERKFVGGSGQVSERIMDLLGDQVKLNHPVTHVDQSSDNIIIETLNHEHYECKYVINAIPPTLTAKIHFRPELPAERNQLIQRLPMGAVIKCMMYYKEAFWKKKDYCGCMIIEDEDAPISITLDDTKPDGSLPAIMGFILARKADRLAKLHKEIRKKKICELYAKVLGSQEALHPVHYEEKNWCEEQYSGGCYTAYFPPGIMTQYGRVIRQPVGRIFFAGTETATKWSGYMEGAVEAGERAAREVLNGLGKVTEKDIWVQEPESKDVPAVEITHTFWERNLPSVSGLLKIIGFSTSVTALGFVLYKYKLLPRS
Briefly: HRP/Amplex red based MAO-A enzyme activity assay. The note with it: read-out: IC50, MAO-A assay, HRP/AR method. It counts as biochemical. How it is done: MAO-A or MAO-B enzyme solutions were prepared by diluting 10 µL of a 2.5 mg/mL MAO-A or MAO-B stock into 10 mL of 50 mM sodium phosphate buffer (pH 7.4). A substrate assay mixture was then prepared by combining benzylamine (for MAO-B) or tyramine (for MAO-A) from a 100 mM stock (200 µL in 10 mL phosphate buffer, final concentration 1 mM) with 100 µL of a 20 mM AR reagent stock (final concentration 0.1 mM) and 100 µL of a 200 U/mL HRP stock (final concentration 1 U/mL) in 10 mL phosphate buffer. […] Next, 50 µL of the substrate assay mixture was added, and the reaction was carried out at 37 °C for 60 min. The production of resorufin was quantified by fluorescence measurement (excitation at 540 nm and emission at 580 nm).

The nature of data set [3]: Octanol-water partition coefficient measurement. It counts as physicochemical. To be noted: octanol / pH 7.4 phosphate buffer, octanol / pH7.4 phosphate buffer, room temperature 24 h, aqueous phase below LOQ, LOQ value used, read-out: octanol-water partition coefficient (log D). As to the method: 1000 µg/mL of Vuti was mixed with octanol, and an aliquot of 2 mL was mixed with the same amount of aliquot of 2 mL of pH7.4 phosphate buffer. The mixed solution was shaken at room temperature for 24 h, and the aqueous and octanol phase was separately analyzed for Vuti concentration via HLPC. The limit of quantification (LOQ) was 0.2012 µg/ml. Three replicates were performed. Because no concentration was detected in the aqueous phase, LOQ value was used; the actual concentration in the aqueous phase is expected to be lower than LOQ. The octanol-water partition coefficient Log D was calculated as log of concentration in octanol phase divided by concentration in aqueous phase.
(a) Measurement of Vuti concentration in octanol and aqueous phase (pH7.4 phosphate buffer) via HPLC. The mean value of three replicates was used, and the limit of quantification (LOQ) value was used to calculate Log D as a log of concentration in the octanol phase divided by the concentration in the aqueous phase. (b) Efflux ratios (Papp(B→A)/Papp(A→B)) of Vuti in three types of cell monolayers, with or without P-glycoprotein (P-gp) inhibitor GF120918. (c) Schematic of 14C-labeling of Vuti. Attachment to the ethoxy group is warranted because it is robustly maintained throughout metabolism. (d) Plasma radioactivity concentration in Sprague-Dawley rats after a single administration of 10 mg/kg of 14C-Vuti (n = 3).

Consider `CCOc1ccc(C2COc3c(ccc4c3CCC(C)(C)O4)C2)c(O)c1` (stereo not drawn) [Vuti, Vutiglabridin], for which the IC50 in data set [1] was 58.3 µM; in data set [2], 288 µM. In addition, the logD at 24 h in data set [3] was more than 3.69.
